Laboratory results published in patent publication US5191079A, “Quinolinecarboxylic acid derivatives” (priority 1990, dated 1993).
≈ marks a conversion by molar mass, not a printed value. Like-named read-outs stand apart in the source and are kept apart here.

Assays:
Type in all cases: cell-based
[1] = tested on: Streptococcus pyogenes Cook; assay: MIC, Experiment 1; conditions: S. pyogenes Cook, Gram +, agar with 5% defibrinated horse blood, read-out: Min. inhib. concentr. (MIC)
Description: (§1) The compounds of the present invention (B, E, G, H, M, N, O, P and Q) were each dissolved in dimethylsulfoxide to prepare a solution of 5000 μg/ml in concentration. The compounds of the present invention (I, J and K) and the known compound (Y) were each dissolved in sterilized distilled water to prepare a solution of 5000 μg/ml in concentration. Each solution was diluted with sterilized distilled water to prepare a standard solution with a concentration of each test compound: 1000 μg/ml. The test was carried out by a method as appointed by Japan Society of Chemotherapy [cf. Chemotherapy, 29, 76-79 (1981), TOKYO].
(§2) As to Streptococcus pneumoniae and Streptococcus pyogenes, Brain heart infusion broth (manufactured by DIFCO) was used as the medium for the preculture thereof, and a heart infusion agar medium containing 5% defibrinated horse blood (manufactured by Nissui Seiyaku K. K., Japan) was used as the medium for the measurement of minimum inhibitory concentration (MIC). As to other microorganisms, a sensitivity test broth (manufactured by Nissui Seiyaku K. K.) was used as the medium for the preculture thereof, and a sensitivity test agar medium (manufactured by Nissui Seiyaku K. K.) was used as the medium for the measurement of MIC.

[2] = tested on: Bacillus subtilis ATCC 6633; assay: MIC, Experiment 1; conditions: ATCC6633, B. subtilis ATCC 6633, Gram +, read-out: Min. inhib. concentr. (MIC)
Description: as §1, §2

[3] = tested on: Staphylococcus aureus MS-353; assay: MIC, Experiment 1; conditions: MS353, S. aureus MS-353, Gram +, read-out: Min. inhib. concentr. (MIC)
Description: as §1, §2

Enterobacter cloacae 963 = assay: MIC, Experiment 1; conditions: E. cloacae 963, Gram -, read-out: Min. inhib. concentr. (MIC)
Description: as §1, §2

[4] = tested on: Proteus mirabilis IFO 3849; assay: MIC, Experiment 1; conditions: IFO3849, P. mirabilis IFO 3849, Gram -, read-out: Min. inhib. concentr. (MIC)
Description: as §1, §2

[5] = tested on: Streptococcus pyogenes Sv; assay: MIC, Experiment 1; conditions: S. pyogenes Sv, Gram +, agar with 5% defibrinated horse blood, read-out: Min. inhib. concentr. (MIC)
Description: as §1, §2

Bacillus cereus IAM 1029 = assay: MIC, Experiment 1; conditions: IAM1029, B. cereus IAM 1029, Gram +, read-out: Min. inhib. concentr. (MIC)
Description: as §1, §2

[6] = tested on: Streptococcus pneumoniae IID 552; assay: MIC, Experiment 1; conditions: IID552, S. pneumoniae IID 552, Gram +, agar with 5% defibrinated horse blood, read-out: Min. inhib. concentr. (MIC)
Description: as §1, §2

[7] = tested on: Staphylococcus aureus IID 803; assay: MIC, Experiment 1; conditions: IID803, S. aureus IID 803, Gram +, read-out: Min. inhib. concentr. (MIC)
Description: as §1, §2

[8] = tested on: Escherichia coli NIHJ JC-2; assay: MIC, Experiment 1; conditions: NIHJJC2, E. coli NIHJ JC-2, Gram -, read-out: Min. inhib. concentr. (MIC)
Description: as §1, §2

[9] = tested on: Staphylococcus aureus Terajima (IID 670); assay: MIC, Experiment 1; conditions: IID670, S. aureus Terajima (IID 670), Gram +, read-out: Min. inhib. concentr. (MIC)
Description: as §1, §2

[10] = tested on: Streptococcus pyogenes Su; assay: MIC, Experiment 1; conditions: S. pyogenes Su, Gram +, agar with 5% defibrinated horse blood, read-out: Min. inhib. concentr. (MIC)
Description: as §1, §2

[11] = tested on: Staphylococcus aureus Cowan I (IID 975); assay: MIC, Experiment 1; conditions: IID975, S. aureus Cowan I (IID 975), Gram +, read-out: Min. inhib. concentr. (MIC)
Description: as §1, §2

[12] = tested on: Pseudomonas aeruginosa NCTC 10490; assay: MIC, Experiment 1; conditions: NCTC10490, P. aeruginosa NCTC 10490, Gram -, read-out: Min. inhib. concentr. (MIC)
Description: as §1, §2

[13] = tested on: Staphylococcus epidermidis IAM 1296; assay: MIC, Experiment 1; conditions: IAM1296, S. epidermidis IAM 1296, Gram +, read-out: Min. inhib. concentr. (MIC)
Description: The compounds of the present invention ([…] and Q) were each dissolved in dimethylsulfoxide to prepare a solution of 5000 μg/ml in concentration. The compounds of the present invention (I, J and K) and the known compound (Y) were each dissolved in sterilized distilled water to prepare a solution of 5000 μg/ml in concentration. […] The test was carried out by a method as appointed by Japan Society of Chemotherapy [cf. Chemotherapy, 29, 76-79 (1981), TOKYO]. As to Streptococcus pneumoniae and Streptococcus pyogenes, Brain heart infusion broth (manufactured by DIFCO) was used as the medium for the preculture thereof, and a heart infusion agar medium containing 5% defibrinated horse blood (manufactured by Nissui Seiyaku K. K., Japan) was used as the medium for the measurement of minimum inhibitory concentration (MIC). As to other microorganisms, a sensitivity test broth (manufactured by Nissui Seiyaku K. K.) was used as the medium for the preculture thereof, and a sensitivity test agar medium (manufactured by Nissui Seiyaku K. K.) was used as the medium for the measurement of MIC.

[14] = tested on: clinically isolated Enterococcus faecium; assay: In vitro antibacterial activity against clinical isolates, Experiment 2
Description: (§3) The above solutions were then diluted with sterilized distilled water to prepare a standard solution with a concentration of the test compound: 1000 μg/ml each.
(§4) For the preculture of each microorganism, there was used as the medium a sensitivity test broth (manufactured by Nissui Seiyaku K. K., Japan), and for the measurement of MIC, there was used a sensitivity test agar medium (manufactured by Nissui Seiyaku K. K.).
(§5) The clinically isolates used above were isolated from Nov. 1988 to Jun. 1989 and were obtained from Research Section, Tokyo Clinical Research Center.

[15] = tested on: clinically isolated Staphylococcus epidermidis; assay: as above; conditions: Staphylococcus epidermidis
Description: as §3, §4, §5

[16] = tested on: clinically isolated Enterococcus faecalis; assay: as above; conditions: for MIC50: 50% of strains, read-out: MIC50
Description: as §3, §4, §5

[17] = tested on: clinically isolated Staphylococcus aureus; assay: as above
Description: as §3, §4, §5

[18] = 25 clinical strains S. epidermidis
[19] = 25 clinical strains S. epidermidis, 90% of strains, read-out: MIC90
[20] = 25 clinical strains E. faecalis
[21] = 25 clinical strains E. faecalis, 90% of strains, read-out: MIC90
[22] = 25 clinical strains S. aureus incl. 16 methicillin resistant
[23] = 25 clinical strains S. aureus incl. 16 methicillin resistant, 50% of strains, read-out: MIC50
[24] = 25 clinical strains S. epidermidis, 50% of strains, read-out: MIC50

| SMILES | MIC [1] [µg/mL] | MIC [2] [ng/mL] | MIC [3] [µg/mL] | MIC (Enterobacter cloacae 963) [µg/mL] | MIC [4] [µg/mL] | MIC [5] [µg/mL] | MIC (Bacillus cereus IAM 1029) [µg/mL] | MIC [6] [µg/mL] | MIC [7] [µg/mL] | MIC [8] [µg/mL] | MIC [9] [µg/mL] | MIC [10] [µg/mL] | MIC [11] [µg/mL] | MIC [12] [µg/mL] | MIC [13] [µg/mL] | MIC50 [14] [µg/mL] | MIC ([14]; 25 clinical strains E. faecium) [µg/mL] | MIC [15, 18] [µg/mL] | MIC [16, 20] [µg/mL] | MIC50 [16, 20] [µg/mL] | also measured |
| --- | --- | --- | --- | --- | --- | --- | --- | --- | --- | --- | --- | --- | --- | --- | --- | --- | --- | --- | --- | --- | --- |
| CN1Cc2csc3c(C(=O)O)c(=O)c4cc(F)c(N5CCO[C@@H](CO)C5)c1c4n23 [Compound (N), 9,1-(Methylimino)methano-7-fluoro-8-[(2R)-2-hydroxymethylmorpholino]-5-oxo-5H-thiazolo[3,2-a]quinoline-4-caboxylic acid] | 0.025 (≈ 0.0596 µM) | ≤ 6 | 0.025 (≈ 0.0596 µM) | 0.39 (≈ 0.93 µM) | 0.39 (≈ 0.93 µM) | 0.05 (≈ 0.119 µM) | 0.025 (≈ 0.0596 µM) | 0.025 (≈ 0.0596 µM) | 0.013 (≈ 0.031 µM) | 0.2 (≈ 0.477 µM) | 0.025 (≈ 0.0596 µM) | 0.025 (≈ 0.0596 µM) | 0.013 (≈ 0.031 µM) | 0.39 (≈ 0.93 µM) | 0.05 (≈ 0.119 µM) | 1.56 (≈ 3.72 µM) | 0.1 to 25 (≈ 0.238 to 59.6 µM) | 0.006 to 0.78 (≈ 0.0143 to 1.86 µM) | 0.05 to 3.13 (≈ 0.119 to 7.46 µM) | 0.2 (≈ 0.477 µM) | MIC90 [14]: 6.25 µg/mL (≈ 14.9 µM); MIC50 [15]: 0.025 µg/mL (≈ 0.0596 µM); MIC90 [15, 19]: 0.39 µg/mL (≈ 0.93 µM); MIC90 [16, 21]: 3.13 µg/mL (≈ 7.46 µM); MIC90 [17]: 0.78 µg/mL (≈ 1.86 µM); MIC [17, 22]: 0.006 to 0.78 µg/mL (≈ 0.0143 to 1.86 µM); MIC50 [17, 23]: 0.013 µg/mL (≈ 0.031 µM) |
| CN1Cc2csc3c(C(=O)O)c(=O)c4cc(F)c(N5CCC(O)CC5)c1c4n23 [Compound (L), 9,1-(Methylimino)methano-7-fluoro-8-(4-hydroxypiperidino)-5-oxo-5H-thiazolo[3,2-a]quinoline-4-carboxylic acid] | 0.025 (≈ 0.062 µM) | ≤ 6 | 0.013 (≈ 0.0322 µM) | 0.2 (≈ 0.496 µM) | 0.2 (≈ 0.496 µM) | 0.025 (≈ 0.062 µM) | 0.013 (≈ 0.0322 µM) | 0.013 (≈ 0.0322 µM) | ≤ 0.006 | 0.1 (≈ 0.248 µM) | 0.013 (≈ 0.0322 µM) | 0.025 (≈ 0.062 µM) | ≤ 0.006 | 0.39 (≈ 0.967 µM) | 0.013 (≈ 0.0322 µM) | 0.39 (≈ 0.967 µM) | 0.05 to 6.25 (≈ 0.124 to 15.5 µM) | 0.006 to 0.39 (≈ 0.0149 to 0.967 µM) | 0.05 to 1.56 (≈ 0.124 to 3.87 µM) | 0.05 (≈ 0.124 µM) | MIC90 ([14]; 25 clinical strains E. faecium, 90% of strains, read-out: MIC90): 3.13 µg/mL (≈ 7.76 µM); MIC50 [15, 24]: 0.013 µg/mL (≈ 0.0322 µM); MIC90 [15, 19]: 0.39 µg/mL (≈ 0.967 µM); MIC90 [16, 21]: 1.56 µg/mL (≈ 3.87 µM); MIC [17, 22]: 0.006 to 0.39 µg/mL (≈ 0.0149 to 0.967 µM); MIC50 [17, 23]: ≤ 0.006 µg/mL; MIC90 ([17]; 25 clinical strains S. aureus incl. 16 methicillin resistant, 90% of strains, read-out: MIC90): 0.39 µg/mL (≈ 0.967 µM) |
| CN1Cc2csc3c(C(=O)O)c(=O)c4cc(F)c(N5CCN6CCOC[C@H]6C5)c1c4n23 [Compound (F), 9,1-(Methylimino)methano-7-fluoro-8-[(6R)-1,8-diaza-4-oxabicyclo[4.4.0]deca-8-yl]-5-oxo-5H-thiazolo[3,2-a]quinoline-4-carboxylic acid] | 0.05 (≈ 0.112 µM) | 13 (≈ 0.0292 µM) | 0.025 (≈ 0.0562 µM) | 0.78 (≈ 1.75 µM) | 0.78 (≈ 1.75 µM) | 0.05 (≈ 0.112 µM) | 0.025 (≈ 0.0562 µM) | 0.05 (≈ 0.112 µM) | 0.013 (≈ 0.0292 µM) | 0.39 (≈ 0.877 µM) | 0.05 (≈ 0.112 µM) | 0.05 (≈ 0.112 µM) | 0.025 (≈ 0.0562 µM) | 0.78 (≈ 1.75 µM) | 0.05 (≈ 0.112 µM) | 1.56 (≈ 3.51 µM) | 0.2 to 6.25 (≈ 0.45 to 14.1 µM) | 0.013 to 1.56 (≈ 0.0292 to 3.51 µM) | 0.05 to 6.25 (≈ 0.112 to 14.1 µM) | 0.2 (≈ 0.45 µM) | MIC90 [14]: 6.25 µg/mL (≈ 14.1 µM); MIC90 [15]: 0.78 µg/mL (≈ 1.75 µM); MIC50 [15, 24]: 0.05 µg/mL (≈ 0.112 µM); MIC90 [16]: 6.25 µg/mL (≈ 14.1 µM); MIC50 [17]: 0.025 µg/mL (≈ 0.0562 µM); MIC90 [17]: 0.78 µg/mL (≈ 1.75 µM); MIC [17, 22]: 0.013 to 0.78 µg/mL (≈ 0.0292 to 1.75 µM) |
